Measured values reported in US20120220581A1, “IMIDAZO[1,2-b]PYRIDAZINE DERIVATIVES AND THEIR USE AS PDE10 INHIBITORS” (Janssen-Cilag, S.A., priority 2009, published 2012).
Read-outs that look alike come from different tables or passages of the source.

Key:
[1] = system: female hooded-Lister rats; assay: Object recognition test (NOR) after sub-chronic PCP; format: in vivo, rat; conditions: Day 1, 3 min retention trial, mean
[2] = system: conditioned avoidance response in rats; assay: Conditioned avoidance response (CAR) test; format: in vivo; conditions: Rattus norvegicus
Excerpt: The apparatus consisted of an inner box surrounded by an outer box. The inner box was composed of four walls of transparent, synthetic material (length×width×height: 30×30×30 cm), an open top, and a grid floor made of 15 pairs of iron bars (2 mm diameter; 6 mm inter-bar distance). Odd and even bars were connected with a source of alternative current (1.0 mA; Coulbourn Instruments Solid State Shocker/Distributor), which could be interrupted by a switch. The outer box was composed of the same material (length×width×height: 40×40×36 cm), also with an open top, with a distance of 5 cm between the inner and outer box on all sides. To decrease the amount of environmental stimuli, three walls of the outer box were made non-transparent. The front wall was left transparent to allow the necessary inspection of the animal during the test. The upper edge of the outer and inner box served as a target for the rats on which to jump with fore- and hind-paws, respectively.
From their arrival in the laboratory on the experimental day, male Wiga Wistar rats (230±30 g) were housed in individual cages provided with bedding material.
The rats were tested 3 times, i.e. at 60, 90 and 120 min after the injection of test compound or solvent. Latency to avoidance was recorded. The median avoidance response obtained over the three experimental sessions for each rat were used for further calculations.

PDE1B1 = PDE1B1 (Homo sapiens, UniProt Q01064); assay: In vitro PDE selectivity assay (SPA), PDE1B1; format: biochemical; conditions: hPDE1B1; read-out: PDE 1B1 (expressed as pIC50) (converted)
Sequence of PDE1B1 (Q01064 whole entry, species assumed): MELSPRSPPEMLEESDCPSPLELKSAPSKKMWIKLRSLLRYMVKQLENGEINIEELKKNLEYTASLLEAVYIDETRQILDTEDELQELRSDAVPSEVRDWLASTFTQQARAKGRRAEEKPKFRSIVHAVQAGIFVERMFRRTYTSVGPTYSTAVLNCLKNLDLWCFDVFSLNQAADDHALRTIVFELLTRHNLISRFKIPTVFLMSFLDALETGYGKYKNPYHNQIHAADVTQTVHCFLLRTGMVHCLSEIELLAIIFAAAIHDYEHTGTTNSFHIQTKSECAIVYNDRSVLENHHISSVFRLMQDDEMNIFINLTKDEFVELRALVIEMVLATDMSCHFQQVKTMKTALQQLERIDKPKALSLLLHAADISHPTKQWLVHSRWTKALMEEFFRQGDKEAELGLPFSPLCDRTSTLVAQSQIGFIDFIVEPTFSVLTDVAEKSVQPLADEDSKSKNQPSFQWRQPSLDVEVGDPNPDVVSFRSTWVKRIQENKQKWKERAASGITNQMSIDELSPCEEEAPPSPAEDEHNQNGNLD

[3] = target: other members of the PDE family (Homo sapiens, UniProt P16499+P35913); assay: In vitro PDE selectivity assay (SPA), other members of the PDE family (protocols in Table A); format: biochemical; conditions: hPDE6AB; read-out: PDE 6AB (expressed as pIC50) (converted)
Sequence of other members of the PDE family (Homo sapiens, UniProt P16499+P35913) (P16499 whole entry, canonical isoform): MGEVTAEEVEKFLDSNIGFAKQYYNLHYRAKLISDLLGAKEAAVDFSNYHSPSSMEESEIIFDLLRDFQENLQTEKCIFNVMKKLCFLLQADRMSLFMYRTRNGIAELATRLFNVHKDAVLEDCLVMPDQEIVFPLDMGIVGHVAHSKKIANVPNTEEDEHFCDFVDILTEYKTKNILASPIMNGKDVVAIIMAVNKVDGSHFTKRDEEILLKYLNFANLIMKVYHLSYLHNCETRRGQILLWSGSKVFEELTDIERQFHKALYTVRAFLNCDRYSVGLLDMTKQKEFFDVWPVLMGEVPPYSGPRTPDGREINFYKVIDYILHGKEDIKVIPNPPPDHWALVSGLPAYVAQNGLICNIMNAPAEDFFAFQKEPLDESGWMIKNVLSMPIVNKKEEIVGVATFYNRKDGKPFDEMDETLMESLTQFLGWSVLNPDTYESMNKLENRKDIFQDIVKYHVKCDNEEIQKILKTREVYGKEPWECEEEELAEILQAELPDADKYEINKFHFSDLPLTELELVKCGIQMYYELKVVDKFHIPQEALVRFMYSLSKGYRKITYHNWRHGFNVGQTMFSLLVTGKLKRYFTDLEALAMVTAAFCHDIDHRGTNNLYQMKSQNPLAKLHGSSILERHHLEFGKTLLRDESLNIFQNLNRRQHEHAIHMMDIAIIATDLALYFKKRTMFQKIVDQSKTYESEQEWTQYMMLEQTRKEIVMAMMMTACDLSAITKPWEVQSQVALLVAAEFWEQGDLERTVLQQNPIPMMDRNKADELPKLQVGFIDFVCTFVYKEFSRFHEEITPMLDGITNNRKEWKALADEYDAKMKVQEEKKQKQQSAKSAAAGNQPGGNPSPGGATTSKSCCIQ
Sequence of other members of the PDE family (Homo sapiens, UniProt P16499+P35913) (P35913 whole entry, canonical isoform): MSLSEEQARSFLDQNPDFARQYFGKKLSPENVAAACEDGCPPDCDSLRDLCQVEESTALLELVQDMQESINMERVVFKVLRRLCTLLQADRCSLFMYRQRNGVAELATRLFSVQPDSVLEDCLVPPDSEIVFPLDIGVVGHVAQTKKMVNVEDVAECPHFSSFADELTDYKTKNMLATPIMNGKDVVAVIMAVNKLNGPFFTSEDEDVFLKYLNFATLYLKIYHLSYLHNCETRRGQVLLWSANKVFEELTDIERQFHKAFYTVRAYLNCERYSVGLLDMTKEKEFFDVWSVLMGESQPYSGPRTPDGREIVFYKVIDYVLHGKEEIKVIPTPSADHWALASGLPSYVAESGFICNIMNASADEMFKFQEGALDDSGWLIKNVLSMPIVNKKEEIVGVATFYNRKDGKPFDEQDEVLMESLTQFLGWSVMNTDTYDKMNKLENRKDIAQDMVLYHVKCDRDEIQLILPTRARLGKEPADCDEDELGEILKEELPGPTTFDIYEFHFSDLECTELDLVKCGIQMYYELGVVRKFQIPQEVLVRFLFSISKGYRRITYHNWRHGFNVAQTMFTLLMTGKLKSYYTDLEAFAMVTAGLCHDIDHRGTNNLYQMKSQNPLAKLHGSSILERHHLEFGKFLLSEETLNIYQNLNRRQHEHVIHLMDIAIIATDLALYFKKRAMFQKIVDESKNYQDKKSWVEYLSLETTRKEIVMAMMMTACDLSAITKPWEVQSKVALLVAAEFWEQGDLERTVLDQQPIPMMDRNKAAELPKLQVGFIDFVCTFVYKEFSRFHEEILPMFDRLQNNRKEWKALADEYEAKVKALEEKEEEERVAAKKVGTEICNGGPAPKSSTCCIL
Procedure, shortened: (§1)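 Inhibition of each PDE isoform was measured by scintillation proximity assay with ³H-cyclic nucleotide substrate, using incubation buffer, substrate concentration, incubation time and stop solution adapted per isoform. Compounds were tested in dose-response against 1% DMSO controls and enzyme-free blanks. IC50 came from a least-squares fit of blank-subtracted % of control versus concentration.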

[4] = target: other members of the PDE family (Homo sapiens, UniProt O60658); assay: as above; format: biochemical; conditions: hPDE8A1; read-out: PDE 8A1 (expressed as pIC50) (converted)
Sequence of other members of the PDE family (Homo sapiens, UniProt O60658) (O60658 whole entry): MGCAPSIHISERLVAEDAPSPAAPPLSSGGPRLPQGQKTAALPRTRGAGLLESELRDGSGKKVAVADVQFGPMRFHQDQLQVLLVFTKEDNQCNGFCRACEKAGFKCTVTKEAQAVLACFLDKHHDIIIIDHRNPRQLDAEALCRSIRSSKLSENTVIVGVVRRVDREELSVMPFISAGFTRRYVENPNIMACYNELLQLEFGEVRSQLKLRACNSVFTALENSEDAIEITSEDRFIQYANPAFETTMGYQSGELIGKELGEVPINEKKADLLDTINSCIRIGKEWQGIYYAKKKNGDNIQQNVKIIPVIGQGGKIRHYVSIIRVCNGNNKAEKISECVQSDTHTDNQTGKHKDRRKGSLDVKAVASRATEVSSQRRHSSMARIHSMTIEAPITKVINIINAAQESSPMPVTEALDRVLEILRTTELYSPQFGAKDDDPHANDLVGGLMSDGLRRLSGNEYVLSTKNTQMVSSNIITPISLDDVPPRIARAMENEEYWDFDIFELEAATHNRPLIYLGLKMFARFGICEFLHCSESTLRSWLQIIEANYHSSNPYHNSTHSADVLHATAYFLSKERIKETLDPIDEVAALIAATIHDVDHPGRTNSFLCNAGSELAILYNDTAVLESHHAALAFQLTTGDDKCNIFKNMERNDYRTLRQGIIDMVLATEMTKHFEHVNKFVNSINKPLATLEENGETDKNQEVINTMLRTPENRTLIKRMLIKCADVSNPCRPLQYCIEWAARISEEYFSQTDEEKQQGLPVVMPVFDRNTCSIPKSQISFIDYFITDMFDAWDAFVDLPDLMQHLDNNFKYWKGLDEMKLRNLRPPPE
Procedure, shortened: as §1

PDE10 = target: T1, PDE10 (Rattus norvegicus, UniProt Q9QYJ6); assay: PDE10 occupancy ([3H]-MP-10, striatum); format: in vivo; conditions: rat; for ED50: dose response; for receptor occupancy at 10 mg/kg: single dose 10 mg/kg, subcutaneous, read-out: SD sc % occupancy at 10 mg/kg
T1 construct: from tissue; host or cells: rat brain sections, striatum (in vivo dosing, ex vivo autoradiography)
T1 sequence (Q9QYJ6 1-794): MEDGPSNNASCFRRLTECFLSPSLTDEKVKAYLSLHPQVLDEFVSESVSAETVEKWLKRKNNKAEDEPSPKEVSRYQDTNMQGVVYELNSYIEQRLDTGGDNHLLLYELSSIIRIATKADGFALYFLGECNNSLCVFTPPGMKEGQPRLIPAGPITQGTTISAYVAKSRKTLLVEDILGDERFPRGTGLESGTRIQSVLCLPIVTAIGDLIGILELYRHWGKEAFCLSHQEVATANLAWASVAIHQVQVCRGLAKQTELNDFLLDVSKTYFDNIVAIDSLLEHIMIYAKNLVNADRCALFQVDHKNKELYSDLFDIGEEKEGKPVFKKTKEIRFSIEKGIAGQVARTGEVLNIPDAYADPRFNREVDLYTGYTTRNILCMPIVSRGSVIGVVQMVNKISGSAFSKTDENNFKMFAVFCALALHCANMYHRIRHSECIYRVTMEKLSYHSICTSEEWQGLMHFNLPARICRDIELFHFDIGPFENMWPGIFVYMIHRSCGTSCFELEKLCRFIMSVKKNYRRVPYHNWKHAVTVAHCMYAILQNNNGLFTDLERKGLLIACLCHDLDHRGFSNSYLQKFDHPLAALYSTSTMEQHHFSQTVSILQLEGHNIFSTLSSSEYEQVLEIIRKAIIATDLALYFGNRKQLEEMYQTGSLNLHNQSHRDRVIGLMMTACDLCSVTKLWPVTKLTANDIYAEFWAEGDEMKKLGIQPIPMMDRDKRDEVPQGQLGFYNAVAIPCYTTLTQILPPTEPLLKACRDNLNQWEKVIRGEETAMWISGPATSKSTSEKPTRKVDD
Procedure, shortened: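 Male Wistar rats (200 g) dosed s.c. or p.o.; occupancy measured 1 h post-dose. [^3H]-MP-10 (10 μCi/animal) given i.v. 30 min before sacrifice.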

[5] = sc, subcutaneous administration, read-out: PDE10 in vivo occupancy ED50 sc
[6] = oral administration, read-out: PDE10 in vivo occupancy ED50 po

| Structure (SMILES) | T2(A) exploration time of familiar object, retention trial ([1]; PCP + 0.3 mg/kg p.o.) | T2(B) exploration time of novel object, retention trial ([1]; PCP + 0.3 mg/kg p.o.) | T2(A) exploration time of familiar object, retention trial ([1]; PCP + 1 mg/kg p.o.) | T2(B) exploration time of novel object, retention trial ([1]; PCP + 1 mg/kg p.o.) | ED50 [2] | IC50 (PDE1B1) | IC50 [3] | IC50 [4] | ED50 (PDE10; [5]) | receptor occupancy at 10 mg/kg (PDE10; sc) | ED50 (PDE10; [6]) |
| --- | --- | --- | --- | --- | --- | --- | --- | --- | --- | --- | --- |
| COCCc1ccc(-c2c(C)nc3c(N4CCOCC4)ccnn23)cn1 [compound 1, 3-[6-(2-methoxyethyl)-3-pyridinyl]-2-methyl-8-(4-morpholinyl)-imidazo[1,2-b]pyridazine] | 11.8 s | 17.6 s | 10.7 s | 22.3 s | 4.7 mg/kg | 5.25 µM | 85.1 µM | 77.6 µM | 0.48 mg/kg | 76% | 1.4 mg/kg |
| COCCOc1ccc(-c2c(C)nc3c(-c4ccncc4)ccnn23)cn1 [compound 21, 3-[6-(2-methoxyethoxy)-3-pyridinyl]-2-methyl-8-(4-pyridinyl)-imidazo[1,2-b]pyridazine] | – | – | – | – | 5.4 mg/kg | – | – | – | 2.6 mg/kg | 61% | 14 mg/kg |
